One test deals with T1, oxytocin receptors (Rattus norvegicus, UniProt P70536).
T1 sequence (P70536 1-388): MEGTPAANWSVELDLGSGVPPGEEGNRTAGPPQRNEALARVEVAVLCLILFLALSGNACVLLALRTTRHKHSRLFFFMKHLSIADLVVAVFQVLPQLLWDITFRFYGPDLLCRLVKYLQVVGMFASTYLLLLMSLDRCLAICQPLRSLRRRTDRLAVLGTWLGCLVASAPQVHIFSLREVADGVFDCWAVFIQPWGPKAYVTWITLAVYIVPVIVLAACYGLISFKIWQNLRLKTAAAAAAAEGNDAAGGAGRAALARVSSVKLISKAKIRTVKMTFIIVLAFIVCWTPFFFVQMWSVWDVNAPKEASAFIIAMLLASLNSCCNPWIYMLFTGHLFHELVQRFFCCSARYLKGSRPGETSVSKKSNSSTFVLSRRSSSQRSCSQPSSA
Description: Oxytocin Receptor Binding. Conditions: for IC50: rat uterine membranes, [3H]oxytocin.

Test [1] deals with T2, Rat Kidney Medullary V2 Receptors (Rattus norvegicus, UniProt Q00788).
T2 construct: Medullary tissues from rat kidneys are dissected out; from tissue; host or cells: rat kidney medulla membranes
T2 sequence (Q00788 whole entry): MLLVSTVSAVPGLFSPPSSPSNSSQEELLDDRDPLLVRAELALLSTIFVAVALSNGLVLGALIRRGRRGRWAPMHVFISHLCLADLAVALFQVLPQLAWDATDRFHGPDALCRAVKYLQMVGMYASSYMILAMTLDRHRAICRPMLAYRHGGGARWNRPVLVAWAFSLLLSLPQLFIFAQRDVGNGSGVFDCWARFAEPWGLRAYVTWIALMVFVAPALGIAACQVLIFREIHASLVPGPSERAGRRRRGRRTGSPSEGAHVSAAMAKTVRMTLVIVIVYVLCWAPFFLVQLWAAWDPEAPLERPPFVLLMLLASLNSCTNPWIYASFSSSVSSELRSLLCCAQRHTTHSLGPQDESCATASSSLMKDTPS
The experiment in a line: biochemical. In kind it is binding. As for the experimental part: Binding Assay to Rat Kidney Medullary V2 Receptors
Medullary tissues from rat kidneys are dissected out, cut into small pieces and soaked in a […] sodium chloride solution containing 1.0 mM EDTA with many changes of the liquid phase, until the solution is clear of blood. The tissue is homogenized in a 0.25M sucrose solution containing 1.0 mM EDTA and 0.1 mM PMSF using a Potter-Elvehjem homogenizer with a teflon pestle. The homogenate is filtered through several layers (4 layers) of cheese cloth. The filtrate is rehomogenized using a dounce homogenizer, with a tight fitting pestle. The final homogenate is centrifuged at 1500×g for 15 min. The nuclear pellet is discarded and the supernatant fluid recentrifuged at 40,000×g for 30 min. The resulting pellet formed contains a dark inner part with the exterior, slightly pink. The pink outer part is suspended in a small amount of 50.0 mM Tris.HCl buffer, pH 7.4. The protein content is determined by the Lowry's method (Lowry et al, J. Biol. Chem., 1953). The membrane suspension is stored at -70° C., in 50.0 mM Tris.HCl, containing 0.2% inactivated BSA and 0.1 mM PMSF in aliquots of 1.0 ml containing 10.0 mg protein per ml of suspension until use in subsequent binding experiments.
For binding experiments, the following is added in μl volume to wells of a 96 well format of a microtiter plate: 100.0 μl of 100.0 mM Tris.HCl buffer containing 0.2% heat inactivated BSA, 10.0 mM MgCl2 and a mixture of protease inhibitors: leupeptin, 1.0 mg %; aprotinin, 1.0 mg %; 1,10-phenanthroline, 2.0 mg %; trypsin inhibitor, 10.0 mg % and 0.1 mM PMSF, 20.0 μl of [^3 H] Arginine^8, vasopressin (S.A. 75.0 Ci/mmole) at 0.8 nM and the reaction initiated by the addition of 80.0 μl of tissue membranes (200.0 μg tissue protein). The plates are left undisturbed on the bench top for 120 min. to reach equilibrium. Non-specific binding is assessed in the presence of 1.0 μM of unlabeled ligand, added in 20 μl volume. For test compounds, these are solubilized in 50% dimethylsulfoxide (DMSO) and added in 20.0 μl volume to a final incubation volume of 200 μl. Upon completion of binding, the content of each well is filtered off, using a Brandel® cell Harvester (Gaithersburg, Md.). The radioactivity trapped on the filter disk by the ligand-receptor complex is assessed by liquid scintillation counting in a Packard LS Counter, with an efficiency of 65% for tritium. The data are analyzed for IC50 values by the LUNDON-2 program for competition (LUNDON SOFTWARE, Ohio).

25 compounds from patent publication US5753648A, “Tricyclic benzazepine vasopressin antagonists” (American Cyanamid Company, priority 1996, dated 1998) can be followed below.

Counter-ions that a name gives are not always drawn.

What is called inhibition is the relative decrease from the control value, in per cent. High values mean a response far below the control, low ones a response near the control. As a reminder, the IC50 is the midpoint of a concentration-inhibition curve. A low value points to greater potency in that assay.

Description for oxytocin receptors: Female Sprague-Dawley rats weighing approximately 200-250 g are injected intramuscularly (i.m.) with 0.3 mg/kg of body weight of diethylstilbestrol (DES). The rats are sacrificed 18 hours later under pentobarbital anesthesia. The uteri are dissected out, cleaned of fat and connective tissues and rinsed in 50 ml of normal saline. The tissue pooled from six rats is homogenized in 50 ml of 0.01 mM Tris.HCl, containing 0.5 mM dithiothreitol and 1.0 mM EDTA, adjusted to pH 7.4, using a polytron at setting 6 with three passes of 10 sec each. The homogenate is passed through two (2) layers of cheesecloth and the filtrate centrifuged at 1000×g for 10 min. The clear supernatant is removed and recentrifuged at 165,000×g for 30 min. The resulting pellet containing the oxytocin receptors is resuspended in 50.0 mM Tris.HCl containing 5.0 mM MgCl2 at pH 7.4, to give a protein concentration of 2.5 mg/ml of tissue suspension. This preparation is used in subsequent binding assays with [^3 H]Oxytocin.
Binding of 3,5-[^3 H]Oxytocin ([^3 H]OT) to its receptors is done in microtiter plates using [^3 H]OT, at various concentrations, in an assay buffer of 50.0 mM Tris.HCl, pH 7.4 and containing 5.0 mM MgCl2, and a mixture of protease inhibitors: BSA, 0.1 mg; aprotinin, 1.0 mg; 1,10-phenanthroline, 2.0 mg; trypsin, 10.0 mg; and PMSF, 0.3 mg per 100 ml of buffer solution. Non-specific binding is determined in the presence of 1.0 uM unlabeled OT. The binding reaction is terminated after 60 min., at 220° C., by rapid filtration through glass fiber filters using a Brandel® cell harvester (Bio-medical Research and Development Laboratories, Inc., Gaithersburg, Md.). Competition experiments are conducted at equilibrium using 1.0 nM [^3 H]OT and varying the concentration of the displacing agents. The concentrations of agent displacing 50% of [^3 H]OT at its sites (IC50) are calculated by a computer assisted LUNDON-2 program (LUNDON SOFTWARE INC., Ohio, USA).

As for `O=C(Nc1ccc(C(=O)N2Cc3cccn3Cc3ccccc32)cn1)c1ccc(F)cc1F` [Example 7], the results for the inhibition at 10 µM (on oxytocin receptors (dose 10 μM); in test [1]) were 66% and 58%, respectively.
For the compound `O=C(Nc1ccc(C(=O)N2Cc3cccn3Cc3ccccc32)cn1)c1ccccc1-c1ccccc1` [Example 10], 1 µM produced 95% inhibition in test [1].
On the same count and under the same terms, the figure for `O=C(Nc1ccc(C(=O)N2Cc3cccn3Cc3ccccc32)cn1)c1cc(Br)ccc1Cl` [Example 11] is 93%.
As to `O=C(Nc1ccc(C(=O)N2Cc3cccn3Cc3ccccc32)cn1)c1cc(Cl)ccc1Cl` [Example 14], testing at 10 µM at oxytocin receptors (dose 10 μM) gave an inhibition of 96%. The compound further came in with an IC50 on oxytocin receptors of 0.58 µM. This compound returned an inhibition at 1 µM in test [1] of 99%.
Consider `O=C(Nc1ccc(C(=O)N2Cc3cccn3Cc3ccccc32)cn1)c1c(F)cccc1Cl` [Example 18], for which the inhibition at 5 µM at oxytocin receptors (dose 5 μM) worked out at 97%. Further, the IC50 on oxytocin receptors turned out to be 0.31 µM. For the same compound, the inhibition at 1 µM in test [1] came out at 94%.
At oxytocin receptors (dose 10 μM), `O=C(Nc1ccc(C(=O)N2Cc3cccn3Cc3ccccc32)cn1)c1ccccc1[N+](=O)[O-]` [Example 43] had an inhibition at 10 µM of 99%. At oxytocin receptors, this compound registered an IC50 of 0.92 µM.
On oxytocin receptors (dose 1 μM), `Cc1ccc(F)cc1C(=O)Nc1ccc(C(=O)N2Cc3ccc(CN(C)C)n3Cc3ccccc32)cn1` [Example 120, N-[5-[[3-[(Dimethylamino)methyl]-[5H-pyrrolo[2,1-c][1,4]benzodiazepin-10(11H)]-yl]carbonyl]-2-pyridinyl]-5-fluoro-2-methylbenzamide] returned an inhibition at 1 µM of 8%.
With `Cc1ccc(F)cc1C(=O)N(CCN(C)C)c1ccc(C(=O)N2Cc3cccn3Cc3ccccc32)cn1` [Example 130, N-[2-(Dimethylamino)ethyl]-N-[5-(5H-pyrrolo[2,1-c][1,4]benzodiazepin-10(11H)-ylcarbonyl)-2-pyridinyl]-5-fluoro-2-methylbenzamide], the inhibition at 10 µM came to 57% on oxytocin receptors (dose 10 μM) and 92% in test [1].
On oxytocin receptors (dose 10 μM), `Cc1ccc(F)cc1C(=O)N(CCCN(C)C)c1ccc(C(=O)N2Cc3cccn3Cc3ccccc32)cn1` [Example 131, N-[3-(Dimethylamino)propyl]-N-[5-(5H-pyrrolo[2,1-c][1,4]benzodiazepin-10(11H)-ylcarbonyl)-2-pyridinyl]-5-fluoro-2-methylbenzamide] displayed an inhibition at 10 µM of 60%. For the same compound, the inhibition at 1 µM in test [1] stood at 82%.
In the case of `Cc1ccc(F)cc1C(=O)Nc1ccc(C(=O)N2Cc3cccn3-c3ncccc32)cn1` [Example 134, N-[5-(Pyrido[3,2-e]pyrrolo[1,2-a]pyrazin-5(6H)-ylcarbonyl)-2-pyridinyl]-5-fluoro-2-methylbenzamide], the inhibition at 1 µM at oxytocin receptors (dose 1 μM) amounted to 63%. Besides, the inhibition at 10 µM in test [1] came out at 94%.
On to `Cc1ccc(F)cc1C(=O)Nc1ccc(C(=O)N2Cc3cccn3-c3ccccc32)cn1` [Example 171, N-[5-(Pyrrolo[1,2-a]quinoxalin-5(4H)-ylcarbonyl)-2-pyridinyl]-5-fluoro-2-methylbenzamide], for which, at oxytocin receptors (dose 10 μM), the inhibition at 10 µM was 73%. Besides, on oxytocin receptors, the IC50 was 1.1 µM.
With `CC(C)CNc1ccc(C(=O)N2Cc3cccn3Cc3ccccc32)cn1` [Example 261, 10-[[6-[(2-Methylpropyl)amino]-3-pyridinyl]carbonyl]-10,11-dihydro-5H-pyrrolo[2,1-c][1,4]benzodiazepine], the IC50 on oxytocin receptors is 0.15 µM. In test [1], this compound had an inhibition at 1 µM of 32% and an inhibition at 10 µM of 55%.
As for `CC(C)(C)CCNc1ccc(C(=O)N2Cc3cccn3Cc3ccccc32)cn1` [Example 262], the inhibition at 10 µM at oxytocin receptors (dose 10 μM) was determined as 76%. The same compound registered an IC50 at oxytocin receptors of 1.6 µM. This compound also returned an inhibition at 1 µM in test [1] of 50%.
For the compound `Cc1ccccc1CNc1ccc(C(=O)N2Cc3cccn3Cc3ccccc32)cn1` [Example 274], the inhibition at 10 µM in test [1] was determined as 97%.
Regarding `O=C(c1ccc(SC2CCCCC2)nc1)N1Cc2cccn2Cc2ccccc21` [Example 288, 10,11-Dihydro-10-[[6-(cyclohexylthio)-3-pyridinyl]carbonyl]-5H-pyrrolo-[2,1-c][1,4]benzodiazepine], the inhibition at 10 µM at oxytocin receptors (dose 10 μM) was found to be 94%; in test [1], 54%. The same compound came in with an IC50 at oxytocin receptors of 1.36 µM.
For `Cc1ccccc1Nc1ccc(C(=O)N2Cc3cccn3Cc3ccccc32)cn1` [Example 301, 10,11-Dihydro-10-[[6-[(2-methylphenyl)amino]-3-pyridinyl]carbonyl]-5H-Pyrrolo[2,1-c][1,4]benzodiazepine] the same measures were 89%, 91% and 0.86 µM.
On oxytocin receptors (dose 1 μM), `O=C(Nc1ccc(C(=O)N2Cc3cccn3Cc3ccccc32)c(Cl)c1)c1ccccc1-c1ccc(C(F)(F)F)cc1` [Example 326] came in with an inhibition at 1 µM of 0%. The inhibition at 10 µM in test [1] was determined as 91%.
Turning to `Cc1ncccc1C(=O)Nc1ccc(C(=O)N2Cc3cccn3Cc3ccccc32)cn1` [Example 330, N-[5-(5H-Pyrrolo[2,1-c][1,4]benzodiazepin-10(11H)-ylcarbonyl]-2-pyridinyl]-2-methylpyridine-3-carboxamide Hydrochloride], the “Oxytocin Binding Assay % Inhibition” value at oxytocin receptors (dose 10 μM, Hydrochloride) came to 93%. The same compound displayed a half-maximal inhibitory concentration (IC50) at oxytocin receptors (Hydrochloride) of 0.99 µM. Moreover, at 1 µM the inhibition in test [1] was 79%.
On to `CN1CCN(c2ncccc2C(=O)Nc2ccc(C(=O)N3Cc4cccn4Cc4ccccc43)cc2)CC1` [Example 331, N-[4-(5H-Pyrrolo[2,1-c][1,4]benzodiazepin-10(11H)-ylcarbonyl)phenyl]-2-[N-methylpiperazinyl]-pyridine-3-carboxamide Hydrochloride], for which the “Oxytocin Binding Assay % Inhibition” value on oxytocin receptors (dose 1 μM, Hydrochloride) was 13%. The same compound yielded an inhibition at 1 µM in test [1] of 43%.
Regarding `CNc1ncccc1C(=O)Nc1ccc(C(=O)N2Cc3cccn3Cc3ccccc32)cc1` [Example 334, N-[4-(5H-Pyrrolo[2,1-c][1,4]benzodiazepin-10(11H)-ylcarbonyl)phenyl]-2-(methylamino)pyridine-3-carboxamide], the figures for the inhibition at 1 µM (at oxytocin receptors (dose 1 μM); in test [1]) were 5% and 79%, respectively.
As for `O=C(Nc1ccc(C(=O)N2Cc3cccn3Cc3ccccc32)cc1)c1cccnc1N1CCCCC1` [Example 336, N-[4-(5H-Pyrrolo[2,1-c][1,4]benzodiazepin-10(11H)-ylcarbonyl)phenyl]-2-(1-piperidinyl)-pyridine-3-carboxamide], the inhibition at 10 µM at oxytocin receptors (dose 10 μM) was determined as 94%. This compound registered an IC50 on oxytocin receptors of 1.63 µM. For the same compound, in test [1], the inhibition at 1 µM is 69%.
Take `O=C(Nc1ccc(C(=O)N2Cc3cccn3Cc3ccccc32)cc1)c1cccnc1N1CCOCC1` [Example 339, N-[4-(5H-Pyrrolo[2,1-c][1,4]benzodiazepin-10(11H)-ylcarbonyl)phenyl]-2-(morpholino)-pyridine-3-carboxamide]: the inhibition at 10 µM at oxytocin receptors (dose 10 μM) was found to be 48%. Moreover, on oxytocin receptors, the IC50 came to 8.56 µM. In test [1], the inhibition at 1 µM was 55%.
`CCCCOc1ccc(C(=O)N2Cc3cc(CO)nn3Cc3ccccc32)cc1` [Example 344, 5,10-Dihydro-2-hydroxymethyl-5-(4-(4-butyloxy)benzoyl)-4H-pyrazolo[5,1-c][1,4]benzodiazepine] returned an inhibition at 1 µM on oxytocin receptors (dose 1 μM) of 58%. This compound also displayed an IC50 at oxytocin receptors of 3.8 µM.
For `O=C(Nc1ccc(C(=O)N2Cc3cccn3Cc3ccccc32)cc1)c1cccnc1Oc1ccc(Cl)cc1` [Example 346, N-[4-(5H-Pyrrolo[2,1-c][1,4]benzodiazepin-10(11H)-ylcarbonyl)phenyl]-2-(4-chlorophenyloxy)pyridine-3-carboxamide], at 1 µM the inhibition on oxytocin receptors (dose 1 μM) was 0%. The compound also showed an inhibition at 10 µM in test [1] of 76%.
With `COc1ccc(CNc2ccc(C(=O)N3Cc4cccn4Cc4ccccc43)cn2)c(OC)c1` [Example 351], the inhibition at 1 µM worked out at 0% on oxytocin receptors (dose 1 μM) and 56% in test [1].
